According to PubChem BioAssay AID463102 (The Scripps Research Institute Molecular Screening Center, 2010):
Calls of active or inactive are those of the source.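 How the source made its calls: active means target enzyme band signal cut by at least 80% with no off-target protein band also blocked; inactive means weaker inhibition or any off-target band blocked.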

What was measured:
[1] = biological target: Glutathione S-transferase omega-1 (Homo sapiens) (UniProt P78417); experiment: GSTO1 inhibition and proteome off-target reactivity, late-stage follow-up, selectivity assay for GSTO1 inhibitor project, cell lysate, MDA-MB-435 proteome, gel ABPP, endogenous enzyme (AID 463102); conditions: competitive gel ABPP, SE-Rh probe, stronger effect = higher value
Sequence of Glutathione S-transferase omega-1 (Homo sapiens) (P78417 whole entry, looked up): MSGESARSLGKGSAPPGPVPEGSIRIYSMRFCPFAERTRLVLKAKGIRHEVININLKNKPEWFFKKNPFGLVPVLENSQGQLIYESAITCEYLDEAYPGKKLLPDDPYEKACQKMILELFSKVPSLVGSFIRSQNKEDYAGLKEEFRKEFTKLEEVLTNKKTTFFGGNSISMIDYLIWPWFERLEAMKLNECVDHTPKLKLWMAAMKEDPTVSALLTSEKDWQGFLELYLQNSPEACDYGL

[2] = as above; conditions: competitive gel ABPP, SE-Rh probe, measured here: total off-target bands hit, stronger effect = lower value

Structure (SMILES) | inhibition ([1]; GSTO1 inhibition, at 1 µM) [%] | inhibition ([1]; at 0.1 µM) | anti-target hits [2]
CCCCCCCCCCN(C(=O)CCl)c1ccc([N+](=O)[O-])cc1 | 100 | 67% (inactive) | 6
O=C(NC1CCCCC1)C(c1cccnc1)N(C(=O)CCl)c1ccc(Cl)c(Cl)c1 (stereo not drawn) | 100 | 93% (inactive) | 2
Cc1nn(-c2ccccc2)c(Cl)c1CN(C(=O)CCl)c1ccc(Cl)cc1 | 93 | 28% (inactive) | 3
O=C(NC1CCCCC1)C(c1cccnc1)N(C(=O)CCl)c1cccc(Cl)c1 (stereo not drawn) | 100 | 100% (inactive) | 2
O=C(CCl)N(CCCCCNC(=O)C(F)(F)F)c1ccc([N+](=O)[O-])cc1 | 100 | 90% (inactive) | 1
O=C(NC1CCCCC1)C(c1cccnc1)N(C(=O)CCl)c1cccc(C(F)(F)F)c1 (stereo not drawn) | 92 | 28% (inactive) | 2
C#CCCCCN(C(=O)CCl)c1ccc([N+](=O)[O-])cc1 | 100 | 51% (inactive) | 0
C#CCN(CCCN(C(=O)CCl)c1ccc([N+](=O)[O-])cc1)C(=O)C(F)(F)F | 100 | 100% | 0
COc1ccc(C(C(=O)NC2CCCCC2)N(C(=O)CCl)c2ccc(Cl)cc2)cc1 (stereo not drawn) | 100 | 87% | 0
COc1ccc(N(CCCNC(=O)C(F)(F)F)C(=O)CCl)cc1 | 90 | 27% (inactive) | 0
O=C(CCl)N1CCN(S(=O)(=O)c2ccc3ccccc3c2)CC1 | 100 | 57% (inactive) | 5
C#CCCCCNC(=O)C(c1cccnc1)N(C(=O)CCl)c1ccc(F)cc1 (stereo not drawn) | 100 | 48% (inactive) | 2
C#CCCCCNC(=O)C(c1ccc(OC)cc1)N(C(=O)CCl)c1cccc(Cl)c1 (stereo not drawn) | 100 | 83% (inactive) | 1
CC(=O)NCCCN(C(=O)CCl)c1ccc([N+](=O)[O-])cc1 | 62 | 16% (inactive) | 0
O=C(CCl)N(CCCNC(=O)C(F)(F)F)c1ccc(F)cc1 | 94 | 25% (inactive) | 0
O=C(NC1CCCCC1)C(c1cccnc1)N(C(=O)CCl)c1ccc(Cl)cc1 (stereo not drawn) | 100 | 79% (inactive) | 2
C#CCNC(=O)C(c1ccc(OC)cc1)N(C(=O)CCl)c1cccc(Cl)c1 (stereo not drawn) | 100 | 69% (inactive) | 1
O=C(NCCCN(C(=O)CCl)c1ccc([N+](=O)[O-])cc1)c1ccccc1 | 93 | 34% (inactive) | 2

Structure (SMILES) | inhibition ([1]; GSTO1 inhibition, at 1 µM) [%] | inhibition ([1]; at 0.1 µM) | anti-target hits [2]
O=S(=O)(c1ccc(Cl)cc1)N1CCC2(CC1)CO2 | 88 | 19% (inactive) | 0
O=C(NC1CCCCC1)C(c1cccnc1)N(C(=O)CCl)c1ccc(C(F)(F)F)cc1 (stereo not drawn) | 55 | 0% (inactive) | 1
Cc1ccc(N(CCCNC(=O)C(F)(F)F)C(=O)CCl)cc1 | 55 | 10% (inactive) | 0
C#CCNC(=O)C(c1ccc(OC)cc1)N(C(=O)CCl)c1ccc(Cl)cc1 (stereo not drawn) | 100 | 64% (inactive) | 0
Cc1ccc2c(c1)c1c3n2CCN(C(=O)CCl)C3CCC1 (stereo not drawn) | 93 | 38% (inactive) | 6
O=C(CCl)N(CCCNC(=O)C(F)(F)F)c1cccc(C(F)(F)F)c1 | 100 | 62% (inactive) | 0
COc1ccc(N(C(=O)CCl)C(C(=O)NC2CCCCC2)c2cccnc2)cc1 (stereo not drawn) | 100 | 45% (inactive) | 1
Cc1cccc(CN2CCN(C(=O)CCl)CC2)c1 | 89 | 26% (inactive) | 2
C#CCCC(=O)NCCCN(C(=O)CCl)c1ccc([N+](=O)[O-])cc1 | 100 | 59% (inactive) | 0
COc1ccc(N(C(=O)CCl)C(C(=O)NCCc2ccccc2)c2cccs2)cc1Cl (stereo not drawn) | 100 | 85% (inactive) | 4
O=C(CCl)N(CCCCNC(=O)C(F)(F)F)c1ccc([N+](=O)[O-])cc1 | 100 | 99% | 0
O=c1[nH]c(CCl)nc2cc(-c3ccc(F)cc3)sc12 | 100 | 77% (inactive) | 4
COc1ccc(C(C(=O)NC2CCCCC2)N(C(=O)CCl)c2cccc(Cl)c2)cc1 (stereo not drawn) | 100 | 98% (inactive) | 1
O=C(CCl)N(CCCNC(=O)C(F)(F)F)c1ccccc1 | 73 | 16% (inactive) | 0
COc1ccc(C(CCN(Cc2ccc(OC)c(OC)c2)C(=O)CCl)c2ccccc2)cc1 (stereo not drawn) | 100 | 81% (inactive) | 9
O=C(NC1CCCCC1)C(c1cccnc1)N(C(=O)CCl)c1ccc(F)cc1 (stereo not drawn) | 100 | 71% (inactive) | 2
O=C(NCCCN(C(=O)CCl)c1ccc([N+](=O)[O-])cc1)c1ccc(F)cc1 | 90 | 29% (inactive) | 2
O=C(CCl)N(CCCNC(=O)C(F)(F)F)c1ccc(Cl)cc1 | 100 | 85% | 0
